# Measurements: US6770596B1, “Fused tricyclic compounds, process for their preparation, and herbicidal compositions containing them” (Ishihara Sangyo Kaisha Ltd., priority 2002, dated 2004)
# Tests used:
# Format in all cases: in vivo
# [1] = tested on: soybean (Glycine max L., var. Pella 86, SOY); experiment: Pre-emerge test, crop damage soybean; conditions: pre-emerge, 250 g ai/ha, 14 days after application, rating scale 0-100 (0 no damage, 100 complete death)
# Procedure, shortened: (§1)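 Scores at 14 days after treatment use a 0–100 scale, where 0 is no damage and 100 is death of all plants. Treatments were acetone solutions sprayed at 8–1000 g ai/ha onto soil sown one day prior.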
# [2] = tested on: redroot pigweed (Amaranthus retroflexus, AMR); experiment: Pre-emerge test, redroot pigweed; conditions: 250 g ai/ha, 14 days after application, rating scale 0-100 (0 no damage, 100 complete death)
# Procedure, shortened: (§2)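 Read-out is a visual 0–100 phytotoxicity rating taken 14 days after treatment, where 100 means all plants dead. Compounds were applied pre-emergence in acetone by track sprayer at rates from 8 to 1000 g ai/ha onto pots sown the previous day.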
# [3] = tested on: barnyardgrass (Echinachloa crus-galli, ECC); experiment: Post-emerge test, barnyardgrass; conditions: 250 g ai/ha, 14 days after application, rating scale 0-100 (0 no damage, 100 complete death)
# Procedure, shortened: (§3)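 Each score is a 0-100 visual rating made 14 days post-spray, with 100 meaning all plants dead. Application was post-emergence at the 2-3 leaf stage, 8-1000 g ai/ha in acetone plus 0.25% v/v surfactant.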
# [4] = tested on: sicklepod (Cassia obtusifolia, CAO); experiment: Post-emerge test, sicklepod; conditions: 250 g ai/ha, 14 days after application, rating scale 0-100 (0 no damage, 100 complete death)
# Procedure, shortened: as §3
# [5] = tested on: upland rice (Oryza sp., var.Tebonnet, RICE); experiment: Post-emerge test, crop damage upland rice; conditions: post-emerge, 250 g ai/ha, 14 days after application, rating scale 0-100 (0 no damage, 100 complete death)
# Procedure, shortened: as §3
# [6] = tested on: sicklepod (Cassia obtusifolia, CAO); experiment: Pre-emerge test, sicklepod; conditions: 250 g ai/ha, 14 days after application, rating scale 0-100 (0 no damage, 100 complete death)
# Procedure, shortened: as §2
# [7] = tested on: lambsquarters (Chenopodium album, CHA); experiment: Post-emerge test, lambsquarters; conditions: 250 g ai/ha, 14 days after application, rating scale 0-100 (0 no damage, 100 complete death)
# Procedure, shortened: as §3
# [8] = tested on: velvetleaf (Abutilon theophrasti, ABT); experiment: Pre-emerge test, velvetleaf; conditions: 250 g ai/ha, 14 days after application, rating scale 0-100 (0 no damage, 100 complete death)
# Procedure, shortened: as §2
# [9] = tested on: ivyleaf morningglory (Ipomoea hederacea, IPH); experiment: Pre-emerge test, ivyleaf morningglory; conditions: 250 g ai/ha, 14 days after application, rating scale 0-100 (0 no damage, 100 complete death)
# Procedure, shortened: as §2
# [10] = tested on: barnyardgrass (Echinachloa crus-galli, ECC); experiment: Pre-emerge test, barnyardgrass; conditions: 250 g ai/ha, 14 days after application, rating scale 0-100 (0 no damage, 100 complete death)
# Procedure, shortened: as §2
# [11] = tested on: common ragweed (Ambrosia artemisiifolia L., AML); experiment: Post-emerge test, common ragweed; conditions: 250 g ai/ha, 14 days after application, rating scale 0-100 (0 no damage, 100 complete death)
# Procedure, shortened: as §3
# [12] = tested on: upland rice (Oryza sp., var.Tebonnet, RICE); experiment: Pre-emerge test, crop damage upland rice; conditions: pre-emerge, 250 g ai/ha, 14 days after application, rating scale 0-100 (0 no damage, 100 complete death)
# Procedure, shortened: as §1
# [13] = tested on: redroot pigweed (Amaranthus retroflexus, AMR); experiment: Post-emerge test, redroot pigweed; conditions: 250 g ai/ha, 14 days after application, rating scale 0-100 (0 no damage, 100 complete death)
# Procedure, shortened: as §3
# [14] = tested on: wheat (Triticum aestivum); experiment: Post-emerge test, crop damage wheat; conditions: post-emerge, 250 g ai/ha, 14 days after application, rating scale 0-100 (0 no damage, 100 complete death)
# Procedure, shortened: as §3
# [15] = tested on: velvetleaf (Abutilon theophrasti, ABT); experiment: Post-emerge test, velvetleaf; conditions: 250 g ai/ha, 14 days after application, rating scale 0-100 (0 no damage, 100 complete death)
# Procedure, shortened: as §3
# [16] = tested on: johnsongrass (Sorghum halepense, SOH); experiment: Pre-emerge test, johnsongrass; conditions: 250 g ai/ha, 14 days after application, rating scale 0-100 (0 no damage, 100 complete death)
# Procedure, shortened: as §2
# [17] = tested on: cocklebur (Xanthium strumariunt, XAS); experiment: Post-emerge test, cocklebur; conditions: 250 g ai/ha, 14 days after application, rating scale 0-100 (0 no damage, 100 complete death)
# Procedure, shortened: as §3
# [18] = tested on: field corn (Zea mays L., var. Dekalb 535, CORN); experiment: Pre-emerge test, crop damage field corn; conditions: pre-emerge, 250 g ai/ha, 14 days after application, rating scale 0-100 (0 no damage, 100 complete death)
# Procedure, shortened: as §1
# [19] = tested on: soybean (Glycine max L., var. Pella 86, SOY); experiment: Post-emerge test, crop damage soybean; conditions: post-emerge, 250 g ai/ha, 14 days after application, rating scale 0-100 (0 no damage, 100 complete death)
# Procedure, shortened: as §3
# [20] = tested on: green foxtail (Setaria viridis, SEV); experiment: Post-emerge test, green foxtail; conditions: 250 g ai/ha, 14 days after application, rating scale 0-100 (0 no damage, 100 complete death)
# Procedure, shortened: as §3
# [21] = tested on: lambsquarters (Chenopodium album, CHA); experiment: Pre-emerge test, lambsquarters; conditions: 250 g ai/ha, 14 days after application, rating scale 0-100 (0 no damage, 100 complete death)
# Procedure, shortened: as §2
# [22] = tested on: cocklebur (Xanthium strumariunt, XAS); experiment: Pre-emerge test, cocklebur; conditions: 250 g ai/ha, 14 days after application, rating scale 0-100 (0 no damage, 100 complete death)
# Procedure, shortened: as §2
# [23] = tested on: johnsongrass (Sorghum halepense, SOH); experiment: Post-emerge test, johnsongrass; conditions: 250 g ai/ha, 14 days after application, rating scale 0-100 (0 no damage, 100 complete death)
# Procedure, shortened: as §3
# [24] = tested on: green foxtail (Setaria viridis, SEV); experiment: Pre-emerge test, green foxtail; conditions: 250 g ai/ha, 14 days after application, rating scale 0-100 (0 no damage, 100 complete death)
# Procedure, shortened: as §2
# [25] = tested on: large crabgrass (Digitaria sanguinalis, DIS); experiment: Pre-emerge test, large crabgrass; conditions: 250 g ai/ha, 14 days after application, rating scale 0-100 (0 no damage, 100 complete death)
# Procedure, shortened: as §2
# [26] = tested on: field corn (Zea mays L., var. Dekalb 535, CORN); experiment: Post-emerge test, crop damage field corn; conditions: post-emerge, 250 g ai/ha, 14 days after application, rating scale 0-100 (0 no damage, 100 complete death)
# Procedure, shortened: as §3
# [27] = tested on: common ragweed (Ambrosia artemisiifolia L., AML); experiment: Pre-emerge test, common ragweed; conditions: 250 g ai/ha, 14 days after application, rating scale 0-100 (0 no damage, 100 complete death)
# Procedure, shortened: as §2
# [28] = tested on: ivyleaf morningglory (Ipomoea hederacea, IPH); experiment: Post-emerge test, ivyleaf morningglory; conditions: 250 g ai/ha, 14 days after application, rating scale 0-100 (0 no damage, 100 complete death)
# Procedure, shortened: as §3
# [29] = tested on: wheat (Triticum aestivum); experiment: Pre-emerge test, crop damage wheat; conditions: pre-emerge, 250 g ai/ha, 14 days after application, rating scale 0-100 (0 no damage, 100 complete death)
# Procedure, shortened: as §1
# [30] = tested on: large crabgrass (Digitaria sanguinalis, DIS); experiment: Post-emerge test, large crabgrass; conditions: 250 g ai/ha, 14 days after application, rating scale 0-100 (0 no damage, 100 complete death)
# Procedure, shortened: as §3
Structure (SMILES),Pre-emerge crop damage SOY (phytotoxicity rating) [1],Pre-emerge Herbicidal Activity AMR (phytotoxicity rating) [2],Post-emerge Herbicidal Activity ECC (phytotoxicity rating) [3],Post-emerge Herbicidal Activity CAO (phytotoxicity rating) [4],Post-emerge crop damage RICE (phytotoxicity rating) [5],Pre-emerge Herbicidal Activity CAO (phytotoxicity rating) [6],Post-emerge Herbicidal Activity CHA (phytotoxicity rating) [7],Pre-emerge Herbicidal Activity ABT (phytotoxicity rating) [8],Pre-emerge Herbicidal Activity IPH (phytotoxicity rating) [9],Pre-emerge Herbicidal Activity ECC (phytotoxicity rating) [10],Post-emerge Herbicidal Activity AML (phytotoxicity rating) [11],Pre-emerge crop damage RICE (phytotoxicity rating) [12],Post-emerge Herbicidal Activity AMR (phytotoxicity rating) [13],Post-emerge crop damage WHEAT (phytotoxicity rating) [14],Post-emerge Herbicidal Activity ABT (phytotoxicity rating) [15],Pre-emerge Herbicidal Activity SOH (phytotoxicity rating) [16],Post-emerge Herbicidal Activity XAS (phytotoxicity rating) [17],Pre-emerge crop damage CORN (phytotoxicity rating) [18],Post-emerge crop damage SOY (phytotoxicity rating) [19],Post-emerge Herbicidal Activity SEV (phytotoxicity rating) [20],also measured
Cc1nn(-c2c(F)cc3c4c2NC(=O)C(C)N4C(=O)CO3)c(=O)n1C(F)F (stereo not drawn) [1-74],95,98,0,0,0,75,65,100,95,98,55,99,60,0,55,99,10,100,0,65,Pre-emerge Herbicidal Activity CHA (phytotoxicity rating) [21]: 99; Pre-emerge Herbicidal Activity XAS (phytotoxicity rating) [22]: 98; Post-emerge Herbicidal Activity SOH (phytotoxicity rating) [23]: 0; Pre-emerge Herbicidal Activity SEV (phytotoxicity rating) [24]: 100; Pre-emerge Herbicidal Activity DIS (phytotoxicity rating) [25]: 99; Post-emerge crop damage CORN (phytotoxicity rating) [26]: 0; Pre-emerge Herbicidal Activity AML (phytotoxicity rating) [27]: 80; Post-emerge Herbicidal Activity IPH (phytotoxicity rating) [28]: 0; Pre-emerge crop damage WHEAT (phytotoxicity rating) [29]: 98; Post-emerge Herbicidal Activity DIS (phytotoxicity rating) [30]: 0
CC1C(=O)Nc2c3c(cc(F)c2-n2c(=O)cc(C(F)(F)F)n(C)c2=O)OCC(=O)N31 (stereo not drawn) [1-2],99,100,60,0,70,99,80,100,100,100,65,100,90,25,100,100,75,100,50,60,Pre-emerge Herbicidal Activity CHA (phytotoxicity rating) [21]: 100; Pre-emerge Herbicidal Activity XAS (phytotoxicity rating) [22]: 99; Post-emerge Herbicidal Activity SOH (phytotoxicity rating) [23]: 20; Pre-emerge Herbicidal Activity SEV (phytotoxicity rating) [24]: 100; Pre-emerge Herbicidal Activity DIS (phytotoxicity rating) [25]: 100; Post-emerge crop damage CORN (phytotoxicity rating) [26]: 10; Pre-emerge Herbicidal Activity AML (phytotoxicity rating) [27]: 100; Post-emerge Herbicidal Activity IPH (phytotoxicity rating) [28]: 90; Pre-emerge crop damage WHEAT (phytotoxicity rating) [29]: 100; Post-emerge Herbicidal Activity DIS (phytotoxicity rating) [30]: 0
"Cn1c(C(F)(F)F)cc(=O)n(-c2c(F)cc3c4c2NC(=O)CN4C(=O)CO3)c1=O [1-1, 8-[1-methyl-6-(trifluoromethyl)-2,4-(1H, 3H)-pyrimidinedione-3-yl]-9-fluoro-5H-pyrazino[1,2,3-de]-1,4-benzoxazine-3,6-(2H, 7H)-dione]",100,100,60,40,99,100,98,100,100,100,65,100,100,25,100,100,100,100,95,95,Pre-emerge Herbicidal Activity CHA (phytotoxicity rating) [21]: 100; Pre-emerge Herbicidal Activity XAS (phytotoxicity rating) [22]: 99; Post-emerge Herbicidal Activity SOH (phytotoxicity rating) [23]: 25; Pre-emerge Herbicidal Activity SEV (phytotoxicity rating) [24]: 100; Pre-emerge Herbicidal Activity DIS (phytotoxicity rating) [25]: 100; Post-emerge crop damage CORN (phytotoxicity rating) [26]: 0; Pre-emerge Herbicidal Activity AML (phytotoxicity rating) [27]: 100; Post-emerge Herbicidal Activity IPH (phytotoxicity rating) [28]: 100; Pre-emerge crop damage WHEAT (phytotoxicity rating) [29]: 100; Post-emerge Herbicidal Activity DIS (phytotoxicity rating) [30]: 0
